Results on 6 compounds are retold here after patent US20020082200A1, “Use of inhibitors of human S-CD23” (SmithKline Beecham p.1.c., priority 1994, published 2002).

Format in all cases: cell-based
The subject of one assay is soluble CD23. The assay can be described thus: Inhibition of release of soluble CD23 from CD23-transfected CHO cells (Procedure 1). The settings on record: CHO cells transfected with alpha form of CD23, 6 hours, ELISA of supernatant; read-out: IC50 (concentration which inhibits the release of soluble CD23 by 50% relative to the control culture). How it is done: The ability of test compounds to inhibit the release of soluble CD23 was investigated by use of the following procedure.
Adherent Chinese Hamster Ovary cells which had been transfected with the alpha form of CD23 were grown in microtitre plates. Cells were grown to confluence in α-MEM medium with 10% foetal calf serum, 2 mM glutamine containing 800 micro g/ml G418. Medium was removed and the cells washed with sterile phosphate buffered saline. Test compounds were dissolved in dimethyl sulphoxide at a stock concentration of 20 mM, then diluted 1 in 200 with α-MEM containing 800 micro g/ml G418 (no foetal calf serum). […] of the diluted compounds were added to the adherent cells in triplicate wells. Appropriate control cultures were set up in triplicate. The plates were incubated for 6 hours at 37° C., 95% air/5% CO2 in a humidified incubator, then centrifuged at 200× g for 3 minutes. A specific ELISA for CD23, obtained from The Binding Site Limited, Institute of Research and Development, Birmingham England, was used to measure CD23 levels in the culture supernatants.

In assay [1] the test system is Human peripheral blood mononuclear cells. The assay can be described thus: Inhibition of formation of human IgE in vitro, peripheral blood mononuclear cells with IL4 (Procedure 3). The conditions noted are these: 12 days, ELISA, IL4 alone 72.4, TCM 0.25. How it is done:
(§1) The ability of test compounds to inhibit the formation of human IgE in vitro was investigated using the following procedure:
Human peripheral blood mononuclear cells were separated by centrifugation over Ficoll-Paque (Pharmacia). The cells were suspended in RPMI 1640 medium containing 10% foetal calf serum, 2 mM glutamine, 50 microM 2-mercaptoethanol and 50 micro g/ml gentamycin (TCM) at a concentration of 1.25×10^6 cells/ml. 800 micro l of the cell suspension were aliquoted into the wells of a 48 well plate. […] Test compounds are dissolved in dimethylsulphoxide (DMSO) at a stock dilution of
10^−2M diluted 1 in 100 in TCM and then as above. The plates are incubated for 12 days at 37° C. in a 95% air/5% CO2 humidified incubator. At the end of the culture period the supernatants were removed with the wells and centrifuged (200× g for 10 minutes) to remove any non-adherent cells. There was no toxicity as assessed by trypan blue dye exclusion. The IgE concentration in the supernatants was measured by ELISA.

Assay [2] has as its system Human tonsillar B lymphocytes. In words: Inhibition of formation of human IgE in vitro, tonsillar B lymphocytes with IL4 and anti-CD40 (Procedure 4). The settings on record: 11 days, ELISA, stimulated control 11.7, TCM 1.9. On the procedure:
as §1
Human tonsillar B lymphocytes were suspended in RPMI 1640 medium containing 10% foetal calf serum, 2 mM glutamine, 50 micro M 2-mercaptoethanol and 50 micro g/ml gentamycin (TCM) at a concentration of 1.25×10^6 cells/ml. 800 micro l of the cell suspension were aliquoted into the wells of a 48 well plate. 100 micro l of TCM or IL4 at 100 ng/ml and antibody to CD40 at 10 microg/ml was added in quadriplicate to the appropriate wells, followed by 100 micro l of TCM or 10× the final concentration of compound under investigation. Test compounds are dissolved in DMSO at a stock dilution of 10^−2M diluted 1 in 100 in TCM and then as above. The plates are incubated for 11 days at 37° C. in a 95% air/5% CO2 humidified incubator. At the end of the culture period the supernatents were removed from the wells and centrifuged (200× g for 10 minutes) to remove any non-adherent cells. There was no toxicity as assessed by trypan dye exclusion. The IgE concentration in the supernatants was measured by ELISA.
(In an ELISA, binding on a coated surface is turned into a signal by an enzyme label.)

As for `CNC(=O)[C@@H](Cc1ccccc1)NC(=O)[C@H](CC(C)C)[C@H](CSc1cccs1)C(=O)N[O-].[Na+]` [P1, [4-(N-Hydroxyamino)-2-(R)-isobutyl-3-(S)-(2-thiophenethiomethyl)succinyl]-(S)-phenylalanine-N-methylamide, Sodium Salt], the IC50 in the assay on soluble CD23 amounted to 0.05 µM. Also, the “IgE ng/ml (mean +/− sem)” value was 3.2 ± 1.9 ng/mL in assay [1] (IL4 (5 ng/ml) with compound at 10^−5 M); 21.3 ± 16.5 ng/mL in assay [1] (IL4 (5 ng/ml) with compound at 10^−6 M); 68.8 ± 21.8 ng/mL in assay [1] (IL4 (5 ng/ml) with compound at 10^−7 M); 2.9 ± 0.2 ng/mL in assay [2] (IL4 (10 ng/ml) and anti CD40 (1 micro g/ml) with compound at 10^−5 M); 4.3 ± 0.6 ng/mL in assay [2] (IL4 (10 ng/ml) and anti CD40 (1 micro g/ml) with compound at 10^−6 M); 6.2 ± 0.5 ng/mL in assay [2] (IL4 (10 ng/ml) and anti CD40 (1 micro g/ml) with compound at 10^−7 M).
Take `CNC(=O)[C@@H](Cc1ccc(OC)cc1)NC(=O)C(CC(=O)NO)CC(C)C` (stereo partly drawn) [P3, N-[3-(N′-Hydroxycarboxamido)-2-(2-methylpropyl)-propanoyl]-(S)-O-methyl-L-tyrosine-N-methylamide]: the IC50 in the assay on soluble CD23 was 3.35 µM.
On the same count and under the same terms, to `CNC(=O)[C@H](Cc1c[nH]c2ccccc12)NC(=O)[C@H](CC(C)C)[C@@H](S)CC(=O)OC` [P4, Methyl 3-(S)-mercapto-6-methyl-4-(S)-[[[1(S)-[(methylamino)carbonyl]-2-(3-indolyl)ethyl]amino]carbonyl]heptanoate] belongs 2.2 µM.
With `CNC(=O)[C@H](Cc1c[nH]c2ccccc12)NC(=O)[C@H](CC(C)C)[C@@H](S)CC(=O)OC(C)C` [P5, Isopropyl 3-(S)-mercapto-6-methyl-4-(S)-[[[1(S)-[(methylamino)carbonyl]-2-(3-indolyl)ethyl]amino]carbonyl]heptanoate], the IC50 in the assay on soluble CD23 stood at 60 µM.
Still for that read-out and setting: to `CNC(=O)[C@H](Cc1ccc(OC)cc1)NC(=O)[C@H](CC(C)C)[C@@H](S)CC(N)=O` [P6, 3-(S)-Mercapto-N^1-[1-(S)-[(methylamino)carbonyl]-2-(4-methoxyphenyl)ethyl]-2-(S)-(2-methylpropyl)pentanediamide] belongs 60 µM; to `CC[C@@H](N[C@@H](CC(C)C)C(=O)N[C@@H](Cc1ccc(OC)cc1)C(=O)NC)P(=O)(O)O` [P7, N-[N-((S)-1-Phosphonopropyl)-(S)-leucyl]-O-methyl-(S)-tyrosine N-methylamide], 30 µM.
